Experimental data reported in patent US10010560B2, “Small molecule HSP70 inhibitors” (THE TRUSTEES OF THE UNIVERSITY OF PENNSYLVANIA, priority 2014, dated 2018).

What was measured:
[1] = target: T1, full-length, nucleotide-free HSP70 protein (Homo sapiens, UniProt P0DMV8, E110D); assay: ITC binding to nucleotide-free full-length HSP70; details: average and s.d. of two experiments, read-out: dissociation constant
T1 construct: Full-length recombinant proteins of HSP70 (aa 1-641) as well as DnaK (aa 1-638); His6 (N); made in house; host or cells: E. coli BL21 Star (DE3)
Source text: FIGS. 3A-3L illustrate that PET-16 binds directly to ADP-bound HSP70 and DnaK. Specifically, FIGS. 3A-3H are isothermal calorimetric titration (ITC) assays of the indicated compounds (NRLLLTG—SEQ ID NO: 7, PES or PET-16) with purified HSP70-ADP, DnaK-ADP or HSP70-ATP proteins. The data are representative of three independent experiments. FIGS. 3I and 3J are ITC assays for the interaction between HSP70 (aa 386-616 of SEQ ID NO: 2) protein and PET-16 (I) or TPP (J). Binding constants (Kd values) are shown (average and s.d. from three independent experiments). PET-16 also binds directly to the purified, full-length, nucleotide-free HSP70 protein, with a reported dissociation constant of 5.2+/−0.1 micromolar, which is the average and standard deviation from two independent experiments (data not shown). FIG. 3K is ITC assay of HSP70 protein preincubated with ADP and PES for 1 h. The mixture was titrated into the sample cell containing PET-16. The data are representative of three independent ITC experiments. FIG. 3L are western blots of human lung carcinoma (H1299) cells that were pretreated with DMSO or excess (8×) PET-16 for 1 h prior to the addition of 20 μM B-PES for 5 h and examined for the expression of HSP70 or BCL-xL. B-PES-containing complexes were captured by Avidin resins and immunoblotted either with anti-HSP70 or anti-BCL-xL antibody. […]

ADP-HSP70 L394D = target: T2, ADP-HSP70 L394D (Homo sapiens, UniProt P0DMV8, E110D/L394D); assay: ITC, mutated full-length ADP-HSP70; format: binding; details: ADP-HSP70 mutant L394D
T2 construct: The full-length HSP70 and DnaK mutants were constructed by PCR-based site-directed mutagenesis; His6 (N); made in house; host or cells: E. coli BL21 Star (DE3)
Source text: (§1) The human stress-inducible HSP70 (residues 1-641 or 386-616 of SEQ ID NO: 2) and E. coli DnaK (residues 1-638, 389-607, or 393-507 of SEQ ID NO: 4) were cloned into the pET25 vector (EMD Millipore Chemicals, Inc., Billerica, Mass., USA) between the NdeI and XhoI restriction sites. The full-length HSP70 and DnaK mutants were constructed by PCR-based site-directed mutagenesis using the QuikChange™ Site-Directed Mutagenesis Kit (Agilent Technologies, Inc., Santa Clara, Calif., USA). All plasmid inserts were verified by DNA sequencing. All HSP70 and DnaK variants were produced with a N-terminal His6-tag in the E. coli BL21 Star (DE3) strain (Invitrogen catalog number C6010-03). The resulting strains were grown at 37° C. in LB medium containing 50 μg/mL of carbenicillin (Sigma-Aldrich Co., St. Louis, Mo., USA). At an OD600 about 0.3 to about 0.5, protein expression was induced with 0.5 mM isopropyl-β-D-thiogalactopyranoside (IPTG), and cells were subsequently grown at 25° C. for about 16 h. Cells were collected by centrifugation and resuspended in the Bugbuster® Master Mix (EMD Millipore Chemicals catalog number 71456-4), supplemented with protease inhibitors, 1 mM diethiothreitol (DTT) and 20 mM imidazole. The His6-tagged fusion proteins were isolated on Ni^2+-chelating resins (Ni-NTA Superflow, Qiagen catalog number 30410) by standard procedures. When necessary, size-exclusion chromatography on a Superdex® 200 or a Superose® 6 10/300 GL columns (GE Healthcare) analytical column pre-equilibrated with 1× Dulbecco's Phosphate Buffered Saline (DPBS—Invitrogen 14190-136), 1 mM Tris-HCl (pH 7.4) or 10 mM Tris-HCl (pH 7) was used as the final purification step. The purified DnaK proteins were dialyzed thoroughly against 1× DPBS with 5 mM DTT at 4° C., for crystallization trials involving the small molecule inhibitor PET-16. For isothermal titration calorimetry studies, all HSP70 and DnaK variants were dialyzed extensively against the buffers as noted below under the section entitled “Isothermal Titration calorimetry Studies”. The dialyzed proteins were subsequently microcentrifugated at 15,000×g for 5 min at 4° C. and aliquots of the soluble proteins were stored at −80° C.
(§2) All ITC experiments were performed using a MicroCal VP-ITC isothermal titration calorimeter (MicroCal). Both full-length HSP70 and DnaK proteins and DnaK (aa 393-507) proteins were prepared in 1 mM Tris-HCl (pH 7.4) buffer containing 3% dimethylsulfoxide (DMSO). The HSP70 (aa 386-616) protein was prepared in buffer containing 3% DMSO and 10 mM Tris-HCl, pH 7. The syringe was loaded with purified protein in either 1 mM Tris-HCl (pH 7.4) buffer containing 3% DMSO or 10 mM Tris-HCl (pH 7) buffer containing 3% DMSO. The sample cell of the calorimeter was loaded with PES, PET-16 or NRLLLTG (SEQ ID NO: 7) prepared in the same buffer. All solutions were degassed for 5 min.
(§3) The titrations involving the full-length purified proteins were performed at 25° C. with injection volumes of 12 μL and a spacing of 300 s. The titrations involving the purified HSP70 (aa 386-616) and DnaK (aa 393-507) were performed at 42° C. with injection volumes of 12 μL and a spacing of 300 s. Heat from the pre-injection was not used during fitting. The data were fit using a one-site binding model available in the Origin® ITC data analysis software (MicroCal Origin® V5.0, MicroCal Software, Northampton, Mass.). Error values obtained from the MicroCal Origin® V5.0 software were averaged and reported.
(§4) The information from crystal structure analysis pointed to particular amino acid residues as potential contact sites for interaction with PET-16. Single point mutants were thereby introduced in the context of a full-length DnaK protein, as well as at the corresponding residues within HSP70; these mutant proteins were analyzed by ITC for ability to bind to PET-16. The DnaK mutations included residues L392D, P396L, L399R, G482D, A503D and […]; those in HSP70 were L394D, P398L, L401R, G484D, N505D and D506A. […]

ADP-HSP70 N505D = target: T3, ADP-HSP70 N505D (Homo sapiens, UniProt P0DMV8, E110D/N505D); assay: ITC, mutated full-length ADP-HSP70; format: binding; details: ADP-HSP70 mutant N505D
T3 construct: The full-length HSP70 and DnaK mutants were constructed by PCR-based site-directed mutagenesis; His6 (N); made in house; host or cells: E. coli BL21 Star (DE3)
Source text: as §1, §2, §3, §4

ADP-HSP70 P398L = target: T4, ADP-HSP70 P398L (Homo sapiens, UniProt P0DMV8, E110D/P398L); assay: ITC, mutated full-length ADP-HSP70; format: binding; details: ADP-HSP70 mutant P398L
T4 construct: The full-length HSP70 and DnaK mutants were constructed by PCR-based site-directed mutagenesis; His6 (N); made in house; host or cells: E. coli BL21 Star (DE3)
Source text: as §1, §2, §3, §4

T3 sequence (P0DMV8 whole entry E110D/N505D): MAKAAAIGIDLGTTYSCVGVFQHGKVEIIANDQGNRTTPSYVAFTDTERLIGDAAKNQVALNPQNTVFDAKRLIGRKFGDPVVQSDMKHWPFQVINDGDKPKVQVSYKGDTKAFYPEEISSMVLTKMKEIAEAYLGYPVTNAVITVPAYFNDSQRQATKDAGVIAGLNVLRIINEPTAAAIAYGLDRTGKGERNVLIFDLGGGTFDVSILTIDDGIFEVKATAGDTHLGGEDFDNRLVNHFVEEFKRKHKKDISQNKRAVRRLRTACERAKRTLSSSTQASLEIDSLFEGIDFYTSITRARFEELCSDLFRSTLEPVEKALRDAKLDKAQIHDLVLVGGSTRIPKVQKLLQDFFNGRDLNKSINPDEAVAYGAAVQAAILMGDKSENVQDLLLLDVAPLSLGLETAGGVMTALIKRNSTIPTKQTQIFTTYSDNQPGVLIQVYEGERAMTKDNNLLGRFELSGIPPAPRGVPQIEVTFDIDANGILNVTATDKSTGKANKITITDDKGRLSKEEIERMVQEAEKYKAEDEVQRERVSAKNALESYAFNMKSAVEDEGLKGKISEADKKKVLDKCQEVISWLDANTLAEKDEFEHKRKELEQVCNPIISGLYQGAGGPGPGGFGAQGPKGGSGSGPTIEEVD
T2 sequence (P0DMV8 whole entry E110D/L394D): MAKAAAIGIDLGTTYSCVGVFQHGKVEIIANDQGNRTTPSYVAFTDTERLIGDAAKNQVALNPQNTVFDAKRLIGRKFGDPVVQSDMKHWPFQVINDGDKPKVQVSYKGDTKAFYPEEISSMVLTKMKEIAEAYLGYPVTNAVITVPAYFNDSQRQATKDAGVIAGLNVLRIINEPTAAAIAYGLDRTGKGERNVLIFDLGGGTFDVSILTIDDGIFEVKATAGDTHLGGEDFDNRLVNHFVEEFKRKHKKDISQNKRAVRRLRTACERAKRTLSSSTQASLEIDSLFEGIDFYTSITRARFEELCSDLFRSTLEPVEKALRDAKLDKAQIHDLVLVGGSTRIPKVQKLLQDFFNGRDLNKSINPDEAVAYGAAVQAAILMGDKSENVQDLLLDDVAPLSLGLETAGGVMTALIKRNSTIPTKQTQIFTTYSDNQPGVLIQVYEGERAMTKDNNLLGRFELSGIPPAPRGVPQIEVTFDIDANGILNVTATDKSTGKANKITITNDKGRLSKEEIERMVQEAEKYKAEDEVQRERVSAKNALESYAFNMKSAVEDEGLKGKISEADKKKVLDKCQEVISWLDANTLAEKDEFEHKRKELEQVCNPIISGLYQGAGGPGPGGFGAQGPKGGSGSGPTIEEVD
T4 sequence (P0DMV8 whole entry E110D/P398L): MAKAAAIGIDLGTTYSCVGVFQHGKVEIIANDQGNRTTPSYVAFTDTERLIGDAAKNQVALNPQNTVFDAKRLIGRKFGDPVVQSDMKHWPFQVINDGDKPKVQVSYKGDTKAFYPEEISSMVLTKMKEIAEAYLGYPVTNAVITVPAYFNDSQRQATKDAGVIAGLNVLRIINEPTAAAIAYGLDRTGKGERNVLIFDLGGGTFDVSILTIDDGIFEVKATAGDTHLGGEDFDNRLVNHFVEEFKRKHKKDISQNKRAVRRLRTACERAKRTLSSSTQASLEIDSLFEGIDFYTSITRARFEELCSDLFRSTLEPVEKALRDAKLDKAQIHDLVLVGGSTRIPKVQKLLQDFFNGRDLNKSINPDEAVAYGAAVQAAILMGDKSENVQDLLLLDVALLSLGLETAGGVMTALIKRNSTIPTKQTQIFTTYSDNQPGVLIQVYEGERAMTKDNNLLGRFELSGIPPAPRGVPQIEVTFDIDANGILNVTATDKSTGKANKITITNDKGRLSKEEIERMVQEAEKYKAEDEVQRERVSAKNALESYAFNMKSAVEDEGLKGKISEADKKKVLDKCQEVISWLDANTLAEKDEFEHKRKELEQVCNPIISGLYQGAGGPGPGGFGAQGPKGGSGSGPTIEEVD
T1 sequence (P0DMV8 whole entry E110D, the tested form may be a part): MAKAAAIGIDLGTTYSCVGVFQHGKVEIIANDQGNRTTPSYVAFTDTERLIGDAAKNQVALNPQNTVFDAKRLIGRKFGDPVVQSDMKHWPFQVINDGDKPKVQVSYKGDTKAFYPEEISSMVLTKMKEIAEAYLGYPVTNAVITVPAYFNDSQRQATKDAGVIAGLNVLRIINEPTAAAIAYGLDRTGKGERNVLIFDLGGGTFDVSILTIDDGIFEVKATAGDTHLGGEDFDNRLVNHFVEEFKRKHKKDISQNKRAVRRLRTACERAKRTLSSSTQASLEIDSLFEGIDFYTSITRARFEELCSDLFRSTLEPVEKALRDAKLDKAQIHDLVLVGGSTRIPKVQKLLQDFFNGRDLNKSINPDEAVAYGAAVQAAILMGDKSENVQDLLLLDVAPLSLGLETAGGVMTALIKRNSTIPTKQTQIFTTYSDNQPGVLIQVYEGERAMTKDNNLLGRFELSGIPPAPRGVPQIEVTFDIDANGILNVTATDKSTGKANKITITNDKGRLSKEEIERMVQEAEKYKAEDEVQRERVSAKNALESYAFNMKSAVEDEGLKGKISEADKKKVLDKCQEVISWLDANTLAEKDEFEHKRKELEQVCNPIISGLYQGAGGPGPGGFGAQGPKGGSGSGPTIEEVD

C(#C[P+](c1ccccc1)(c1ccccc1)c1ccccc1)c1ccccc1.[Br-] [PET-16, triphenyl(phenylethynyl)phosphonium bromide]
Kd [1]: 5.2 µM
Kd (ADP-HSP70 L394D): 30.8 ± 0.6 µM
Kd (ADP-HSP70 N505D): 147 ± 6.5 µM
Kd (ADP-HSP70 P398L): 23.4 ± 1.2 µM
